In ChEMBL document CHEMBL4028815, “Novel phosphonate analogs of sulforaphane: Synthesis, in vitro and in vivo anticancer activity” (Eur J Med Chem, 2017):
Active and inactive are the calls of the source. The calls are words filed in the database; no cut-off is given here.

What was measured:
Mus musculus [1] = test: Toxicity in BALB/c mdb mouse implanted with mouse 4T1 cells assessed as lung weight at 300 umol/kg, ip administered five times weekly measured at 29 day post cell innoculum (reference value: 0.2 +/- 0.018 g); assay type: organism-based; settings: in vivo, 696 h
Mus musculus [2] = test: Toxicity in BALB/c mdb mouse implanted with mouse 4T1 cells assessed as serum PLT level at 300 umol/kg, ip administered five times weekly measured at 29 day post cell innoculum (reference value: 972 +/- 157 10^3/uL); assay type: organism-based; settings: in vivo, 696 h
Mus musculus [3] = test: Toxicity in BALB/c mdb mouse implanted with mouse 4T1 cells assessed as serum urea level at 300 umol/kg, ip administered five times weekly measured at 29 day post cell innoculum (reference value: 3.8 +/- […]); assay type: organism-based; settings: in vivo, 696 h
Mus musculus [4] = test: Toxicity in BALB/c mdb mouse implanted with mouse 4T1 cells assessed as hemoglobin level at 300 umol/kg, ip administered five times weekly measured at 29 day post cell innoculum (reference value: 15.1 +/- 1.5 g/dl); assay type: organism-based; settings: in vivo, 696 h
Mus musculus [5] = test: Toxicity in BALB/c mdb mouse implanted with mouse 4T1 cells assessed as hematocrit at 300 umol/kg, ip administered five times weekly measured at 29 day post cell innoculum (reference value: 39.9 +/- 3.7 %); assay type: organism-based; settings: in vivo, 696 h
Mus musculus [6] = test: Toxicity in BALB/c mdb mouse implanted with mouse 4T1 cells assessed as WBC level at 300 umol/kg, ip administered five times weekly measured at 29 day post cell innoculum (reference value: 212.3 +/- 82.8 10^3/uL); assay type: organism-based; settings: in vivo, 696 h
Mus musculus [7] = test: Toxicity in BALB/c mdb mouse implanted with mouse 4T1 cells assessed as body weight loss at 300 umol/kg, ip administered five times weekly measured on day 11 post cell innoculum; assay type: organism-based; settings: in vivo
Mus musculus [8] = test: Toxicity in BALB/c mdb mouse implanted with mouse 4T1 cells assessed as serum AST level at 300 umol/kg, ip administered five times weekly measured at 29 day post cell innoculum (reference value: 136 +/- 10.3 U/L); assay type: organism-based; settings: in vivo, 696 h
LoVo [9] = test: Induction of apoptosis in human LoVo cells assessed as increase in caspase3/7 activity at 15 uM using Ac-DEVD-ACC as substrate pretreated for 24 hrs followed by substrate addition measured for 2 hrs by fluorescence assay relative to control; assay type: functional
Mus musculus [10] = test: Toxicity in BALB/c mdb mouse implanted with mouse 4T1 cells assessed as body weight loss at 300 umol/kg, ip administered on day 14 post cell innoculum; assay type: organism-based; settings: in vivo
4T1 [11] = test: Anti-tumor activity against mouse 4T1 cells implanted in BALB/c mdb mouse assessed as tumor growth inhibition at 300 umol/kg, ip administered five times weekly measured on day 15 post cell innoculum relative to control; assay type: functional; settings: 4T1, ip, 360 h, read-out: TGI
Mus musculus [12] = test: Toxicity in BALB/c mdb mouse implanted with mouse 4T1 cells assessed as serum creatinine level at 300 umol/kg, ip administered five times weekly measured at 29 day post cell innoculum (reference value: 9.3 +/- 1.2 umol/L); assay type: organism-based; settings: in vivo, 696 h
Mus musculus [13] = test: Toxicity in BALB/c mdb mouse implanted with mouse 4T1 cells assessed as RBC level at 300 umol/kg, ip administered five times weekly measured at 29 day post cell innoculum (reference value: 8.6 +/- 0.9 10^6/uL); assay type: organism-based; settings: in vivo, 696 h
Mus musculus [14] = test: Nephrotoxicity in BALB/c mdb mouse implanted with mouse 4T1 cells assessed as kidney weight at 300 umol/kg, ip administered five times weekly measured at 29 day post cell innoculum (reference value: 0.136 +/- 0.006 g); assay type: toxicity, organism-based; settings: in vivo, 696 h
4T1 [15] = test: Anti-tumor activity against mouse 4T1 cells implanted in BALB/c mdb mouse assessed as tumor growth inhibition at 300 umol/kg, ip administered five times weekly measured on day 29 post cell innoculum relative to control; assay type: functional; settings: 4T1, ip, 696 h, read-out: TGI
Mus musculus [16] = test: Toxicity in BALB/c mdb mouse implanted with mouse 4T1 cells assessed as spleen weight at 300 umol/kg, ip administered five times weekly measured at 29 day post cell innoculum (reference value: 0.603 +/- 0.133 g); assay type: organism-based; settings: in vivo, 696 h
LoVo [17] = test: Induction of apoptosis in human LoVo cells assessed as increase in early apoptotic cells at 15 uM after 24 hrs by APC-Annexin-V/propidium iodide staining based flow cytometric method relative to control; assay type: functional
[18] = Induction of apoptosis in human LoVo/DX cells assessed as loss of mitochondrial membrane potential at 15 uM after 24 hrs by JC-1 staining based flow cytometric method relative to control; assay type: functional
Mus musculus [19] = test: Hepatotoxicity in BALB/c mdb mouse implanted with mouse 4T1 cells assessed as liver weight at 300 umol/kg, ip administered five times weekly measured at 29 day post cell innoculum (reference value: 1.2 +/- 0.13 g); assay type: toxicity, organism-based; settings: in vivo, 696 h
LoVo [20] = test: Cell cycle arrest in human LoVo cells at 15 uM after 24 hrs by propidium iodide staining based flow cytometric method; assay type: functional
4T1 [21] = test: Anti-tumor activity against mouse 4T1 cells implanted in BALB/c mdb mouse assessed as lung metastasis at 300 umol/kg, ip administered five times weekly measured at 29 days post cell innoculum (reference value: 56 +/- 25); assay type: functional
Mus musculus [22] = test: Toxicity in BALB/c mdb mouse implanted with mouse 4T1 cells assessed as serum ALT level at 300 umol/kg, ip administered five times weekly measured at 29 day post cell innoculum (reference value: 23.8 +/- 2.2 U/L); assay type: organism-based; settings: in vivo, 696 h
LoVo [23] = test: Induction of apoptosis in human LoVo cells assessed as loss of mitochondrial membrane potential at 15 uM after 24 hrs by JC-1 staining based flow cytometric method relative to control; assay type: functional
LoVo [24] = test: Induction of apoptosis in human LoVo cells assessed as necrotic cells at 15 uM after 24 hrs by APC-Annexin-V/propidium iodide staining based flow cytometric method (reference value: 10%); assay type: functional
LoVo/DX [25] = test: Induction of apoptosis in human LoVo/DX cells assessed as late apoptotic cells at 15 uM after 24 hrs by APC-Annexin-V/propidium iodide staining based flow cytometric method relative to control; assay type: functional
LoVo [26] = test: Induction of apoptosis in human LoVo cells assessed as late apoptotic cells at 15 uM after 24 hrs by APC-Annexin-V/propidium iodide staining based flow cytometric method relative to control; assay type: functional
[27] = Induction of apoptosis in human LoVo/DX cells assessed as increase in caspase3/7 activity at 15 uM using Ac-DEVD-ACC as substrate pretreated for 24 hrs followed by substrate addition measured for 2 hrs by fluorescence assay relative to control; assay type: functional
LoVo/DX [28] = test: Induction of apoptosis in human LoVo/DX cells assessed as increase in caspase3/7 activity at >15 uM using Ac-DEVD-ACC as substrate pretreated for 24 hrs followed by substrate addition measured for 2 hrs by fluorescence assay; assay type: functional, cell-based
LoVo/DX [29] = test: Cell cycle arrest in human LoVo/DX cells at 15 uM after 24 hrs by propidium iodide staining based flow cytometric method; assay type: functional
LoVo [30] = test: Potency index, ratio of benzyl isothiocyanate IC50 to compound IC50 for human LoVo cells; assay type: functional
LoVo [31] = test: Potency index, ratio of sulforaphane IC50 to compound IC50 for human LoVo cells; assay type: functional
[32] = Cytotoxicity against human LoVo/DX cells assessed as cell death at >15 uM after 24 hrs; assay type: cell-based
MES-SA/Dx5 = test: Cytotoxicity against human MESSA/DX5 cells after 72 hrs by sulforhodamine B assay; assay type: functional, cell-based; settings: MES-SA/Dx5, 72 h
4T1 [33] = test: Cytotoxicity against mouse 4T1 cells after 72 hrs by sulforhodamine B assay; assay type: functional, cell-based; settings: 4T1, 72 h
A549 = test: Cytotoxicity against human A549 cells after 72 hrs by sulforhodamine B assay; assay type: functional, cell-based; settings: A549, 72 h
BALB/3T3 = test: Cytotoxicity against mouse BALB/3T3 cells after 72 hrs by sulforhodamine B assay; assay type: cell-based; settings: BALB/3T3, 72 h
Mus musculus [34] = test: Toxicity in BALB/c mdb mouse implanted with mouse 4T1 cells assessed as body weight loss at 300 umol/kg, ip administered five times weekly measured 3 times weekly during compound dosing; assay type: organism-based; settings: in vivo
[35] = Resistance index, ratio of IC50 for human HL60/MX2 cells to IC50 for human HL60 cells; assay type: functional
LoVo [36] = test: Cytotoxicity against human LoVo cells after 72 hrs by sulforhodamine B assay; assay type: functional, cell-based
LoVo [37] = test: Induction of apoptosis in human LoVo cells assessed as increase in caspase3/7 activity at >15 uM using Ac-DEVD-ACC as substrate pretreated for 24 hrs followed by substrate addition measured for 2 hrs by fluorescence assay; assay type: functional, cell-based
HL60/MX2 = test: Cytotoxicity against human HL60/MX2 cells after 72 hrs by sulforhodamine B assay; assay type: functional, cell-based; settings: HL60/MX2, 72 h
[38] = Cytotoxicity against human LoVo/DX cells after 72 hrs by sulforhodamine B assay; assay type: functional, cell-based
HL-60 = test: Cytotoxicity against human HL60 cells after 72 hrs by sulforhodamine B assay; assay type: functional, cell-based; settings: HL-60, 72 h
[39] = Resistance index, ratio of IC50 for human LoVo/DX cells to IC50 for human LoVo cells; assay type: functional
MES-SA = test: Cytotoxicity against human MESSA cells after 72 hrs by sulforhodamine B assay; assay type: functional, cell-based
LoVo [40] = test: Cytotoxicity against human LoVo cells assessed as cell death at >15 uM after 24 hrs; assay type: cell-based

S=C=NCc1ccccc1 [BENZYL ISOTHIOCYANATE]
Activity (Mus musculus [1]): 0.245 g | Activity (Mus musculus [2]): 871 ×10³ /uL | Activity (Mus musculus [3]): 5.6 mmol/L | Activity (Mus musculus [4]): 16 g/dL | Activity (Mus musculus [5]): 45.1% | Activity (Mus musculus [6]): 300.8 ×10³ /uL | Activity (Mus musculus [7]): Toxic | Activity (Mus musculus [8]): 158.6 U/L | fold change (FC) (LoVo [9]): 11 | Activity (Mus musculus [10]): Non-Toxic | inhibition in vivo at 300 µmol/kg (4T1 [11]): 18.1% | Activity (Mus musculus [12]): 9.7 µmol/L | Activity (Mus musculus [13]): 8.8 ×10⁶ /uL | Activity (Mus musculus [14]): 0.13 g | inhibition in vivo at 300 µmol/kg (4T1 [15]): 26.8% | Activity (Mus musculus [16]): 0.428 g | Activity (LoVo [17]): 17.8% | Activity [18]: 64.6% | Activity (Mus musculus [19]): 1.21 g | Activity (LoVo [20]): Active | Activity (4T1 [21]): 36 | Activity (Mus musculus [22]): 21.5 U/L | Activity (LoVo [23]): 67.6% | Activity (LoVo [24]): Active | Activity (LoVo/DX [25]): Active | Activity (LoVo [26]): Active | fold change (FC) [27]: 9.4

CC(C)OP(=O)(CCCCCCN=C=S)OC(C)C
Activity (Mus musculus [1]): 0.222 g | Activity (LoVo/DX [28]): inactive | Activity (LoVo/DX [29]): inactive | Activity (Mus musculus [2]): 767 ×10³ /uL | Activity (Mus musculus [3]): 4.7 mmol/L | Activity (Mus musculus [4]): 18.2 g/dL | Activity (Mus musculus [5]): 49.6% | Activity (Mus musculus [6]): 259.1 ×10³ /uL | Ratio IC50 (LoVo [30]): 5 | Ratio IC50 (LoVo [31]): 10 | Activity [32]: Toxic | Activity (Mus musculus [8]): 163.3 U/L | IC50 (MES-SA/Dx5): 5.8 µM | IC50 (4T1 [33]): 2.5 µM | IC50 (A549): 10 µM | fold change (FC) (LoVo [9]): 3 | IC50 (BALB/3T3): 11.7 µM | Activity (Mus musculus [34]): <= 10% | inhibition in vivo at 300 µmol/kg (4T1 [11]): 40.4 to 41% | Activity (Mus musculus [12]): 7.1 µmol/L | Ratio IC50 [35]: 1.4 | Activity (Mus musculus [13]): 10 ×10⁶ /uL | Activity (Mus musculus [14]): 0.147 g | IC50 (LoVo [36]): 2.7 µM | inhibition in vivo at 300 µmol/kg (4T1 [15]): -0.2% | Activity (LoVo [37]): inactive | Activity (Mus musculus [16]): 0.535 g | Activity (LoVo [17]): inactive | Activity [18]: 35% | Activity (Mus musculus [19]): 1.32 g | Activity (LoVo [20]): inactive | Activity (4T1 [21]): 49 | Activity (Mus musculus [22]): 26.6 U/L | IC50 (HL60/MX2): 4 µM | IC50 [38]: 9.4 µM | Activity (LoVo [23]): 35% | Activity (LoVo [24]): Active | Activity (LoVo/DX [25]): Active | Activity (LoVo [26]): Active | IC50 (HL-60): 2.9 µM | Ratio IC50 [39]: 3.5 | IC50 (MES-SA): 9.5 µM | fold change (FC) [27]: 2.2 | Activity (LoVo [40]): Toxic
